This is an account of results in patent US20100286762A1, “Compositions and Methods for Ameliorating Clinical Electrical Disturbances” (MUSC Foundation for Research Development, priority 2009, published 2010).

In experiment [1] the test system is cryoinjured mouse hearts. As to the kind of experiment: Arrhythmia induction (S2-S3 premature beat protocol, overdrive pacing) in Langendorff-perfused hearts one week after cryoinjury. The experiment is classed as in vivo. On the procedure: Following cryoinjury by application of 3 mm liquid nitrogen chilled probe hearts in anesthetized mice were treated with a methycellulose patch containing either ˜9 ug of ACT1 peptide, ˜9 ug of reverse control peptide or no peptide (vehicle control). Mice were then allowed to recover for a week. A week following the injury, Langherdorf-perfused hearts from the mice were subject to 2 types of electrical stimulation inducing arrhythmia: a) S2-S3 premature beat protocol and b) Overdrive pacing. Electrical recordings were made and induced arrhythmic behaviors were categorized including delayed after depolarizations, ectopic beats, ventricular tachycardia, and ventricular fibrillation. […] Severity was graded according to the electrical abnormality noted (e.g. ventricular tachycardia was scored lower than ventricular fibrillation) and the persistence of the electrical abnormality (e.g. intermittent tachycardia was scored lower than persistent tachycardia). […] A similar trend is seen in response to overdrive pacing, although in this case the difference between the treatment and controls are not significant at p=0.05. The “All control” group represents pooled reverse and vehicle control counts.

Experiment [2] concerns HeLa cells expressing wt Cx43. As to the kind of experiment: Scrape loading assay of GJ intercellular communication (GJIC). Type of experiment: cell-based. Conditions: relative to control and parental non-connexin expressing cells, p<0.05. From the text: It has been previously shown that inhibition of ZO-1 interaction with Cx43 increases GJ size in HeLa Cx43 and increases the proportion of Triton-insoluble-Cx43 in GJs, without altering Cx43 expression levels or turnover (Hunter et al., 2005). Based on this and other data, it was proposed that ZO-1 inhibits the transition from non-junctional and gap junctional Cx43 (Hunter et al. 2005). The question of where ZO-1 exerted this control to this point is unknown. Here, it is disclosed that ZO-1 regulates movement of connexons in the plasma membrane into GJs. FIG. 1 outlines how this works. The model disclosed herein predicts that inhibiting Cx43/ZO-1 interaction will result in an increase in GJ intercellular communication (GJIC) and a complementary decrease of free-membrane connexons. The well-characterized “scrape loading” technique was used to assess GJIC in HeLa cells expressing wt Cx43.

Experiment [3] relates to Cx43 hemichannel in HeLa Cx43 cells. As to the kind of experiment: Connexon channel (hemichannel) function by EtdBr uptake in live cells. The experiment is classed as cell-based. On the procedure:
Functional and biochemical assays were used to assess whether the predicted reduction in free-membrane connexons occurs. First, connexon channel (hemichannel) function was assayed using EtdBr uptake in live cells as described by Saez and co-workers. […] In a variant of this experiment, the cells were also cultured at low density such that no GJs could form. Again consistent with the model, in the absence of GJs for free connexons in the membrane to be recruited to, ACT1 had no affect (FIG. 2).

In experiment [4] the test system is neonatal rat ventricular myocytes (NVRMs) monolayers and NCRFs. As to the kind of experiment: Adherence of dispersed fibroblasts (NCRFs) to myocyte (NVRM) monolayers. The experiment is classed as cell-based. Conditions: 48 hr timecourse. The method, then:
(§1) FIGS. 4A-4F show ZO-1 regulation of differential adhesion between Cx43 expressing cells. A. Segregation of Cx43-GFP cells from DiI-labeled HeLa Cx43 cells. […] C and D. Cohesion patterns of orange-tagged NVRMs from green-tagged NCRFs following control (top) or ACT1ACT1 (bottom) incubation. […] Scale A=5 um, C, D=25 um.
(§2) In another approach neonatal rat ventricular myocytes (NVRMs) were cultured as monolayers and the propensity of added dispersed NCRFs to adhere to this layer was measured. […] In the second approach, green CellTracker-tagged fibroblasts are mixed with orange CellTracker-tagged myocytes and cultured as aggregates (FIG. 4C,D). […] Disclosed herein, and supported by the disclosed data, the regulation of connexon aggregation via ZO-1 PDZ2 can dynamically adjust the level of differential adhesivity between cells in heterocellular contacts (e.g., fibroblasts and myocytes).

A further experiment deals with NVRM / NCRF aggregates. As to the kind of experiment: Mixed aggregate culture of CellTracker-tagged fibroblasts and myocytes. Type of experiment: cell-based, rat. Conditions: relative to control aggregates. The method, then: as §1, §2
The test system of experiment [5] is cryoinjured mouse hearts. The conditions noted are these: formulation applied coincident with cryo-infarction; 1 week following the injury; O'Quinn et al., Circulation, 2008; cited from earlier work.
The mark [6] stands for this setting: S2-S3 premature beat protocol, methycellulose patch ~9 ug peptide at cryoinjury, hearts tested a week later.
Setting [7] is: overdrive pacing, methycellulose patch ~9 ug peptide at cryoinjury, hearts tested a week later.

Entries after “also recorded” stand apart in the source; their conditions may differ.

For the substance “ACT1: Cx43 CT sequence RPRPDDLEI (SEQ ID NO:1), can be attached to antennapedia sequence: RQPKIWFPNRRKPWKK RPRPDDLEI (SEQ ID NO3) (optionally antennapedia sequence; UniProt P17302 374-382, looked up, fragment)”, in the experiment with cryoinjured mouse hearts [1] (setting [6]), the “S2-S3 Protocol Arrhythmic (numbers of mice displaying an arrhythmia response)” value is recorded as 1 and the “S2-S3 Protocol Stable (numbers of mice)” value worked out at 6. Besides, in the experiment on cryoinjured mouse hearts [1] (setting [7]), the “Overdrive Pacing Arrhythmia (numbers of mice displaying an arrhythmia response)” value was 2 and the “Overdrive Pacing Stable (numbers of mice)” value is reported as 5. Moreover, the “Arrhythmia Severity Index Mean” value in the experiment with cryoinjured mouse hearts [1] (severity graded by electrical abnormality and its persistence, patch ~9 ug peptide, a week after cryoinjury) turned out to be 1.71. Also, the “electrical stability in response to the S2-S3 arrhythmia induction protocol” value in the experiment with cryoinjured mouse hearts [1] (vs controls, chi squares p=0.05 or below) was “improved electrical stability”. Besides, the “GJ intercellular communication (GJIC)” value in experiment [2] is “significantly increased GJIC”. The “hemichannel activity (EtdBr uptake), cells at low density” value in experiment [3] (cells cultured at low density such that no GJs could form) is listed as “no affect”. In experiment [3] (contacting HeLa Cx43 cells, relative to controls and non-connexin expressing HeLa cells, p<0.05), the “hemichannel activity (EtdBr uptake)” value is given as “significantly decreases EtdBr uptake; also recorded: decreased hemichannel activity”. Also, the “adherence of NCRFs to NVRM monolayers” value in experiment [4] is on record as “decreased the adherence”. Also, the “adherence of NCRFs to NVRM monolayers” value in experiment [4] (listed as ACT1ACT1) was “reduction in fibroblast (NCRF) adhesion”. Moreover, in the experiment on NVRM / NCRF aggregates, the “exclusion/loss of NCRFs from aggregates” value is given as “increased exclusion/loss of NCRFs”; the “segregation of myocytes and fibroblasts in aggregates / cohesion index (% co-localization orange and green) of NVRMs” value is reported as “tend to segregate into cohesive domains of like cells”. In the experiment on NVRM / NCRF aggregates (listed as ACT1ACT1), the “exclusion/loss of NCRFs from aggregates” value was “Fibroblasts are excluded more”; the “segregation of myocytes and fibroblasts in aggregates / cohesion index (% co-localization orange and green) of NVRMs” value is “is higher”. Besides, in the experiment on cryoinjured mouse hearts [5], the “arrhythmia susceptibility of heart after cryo-infarction to the ventricle” value is “renders the heart refractory to arrhythmia-inducing electrophysiological protocols”.
